From patent US12139520B2 (priority 2020, dated 2024)
Bridge positions count the residues as written; N and C are the ends. Square brackets hold non-standard residues; d marks the D form. Peptide text beside a SMILES is read from it. Hyp = O=C(O)[C@@H]1C[C@@H](O)CN1; Cit = NC(=O)NCCC[C@H](N)C(=O)O

Tests used:
[1] = Physical stability of peptide analogues (Thioflavin T fibrillation); assay type: physicochemical; settings: maximum ThT signal normalized between hAMY maximum and buffer background; 40° C., shaking, four days; pH 7 per table title
Outline: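 Maximum ThT emission at 480 nm, after LOESS smoothing, is given as percent of the span from buffer background to hAMY. Conditions: 50 mM buffer at pH 4 or 7, 4 μM dye, 40 °C, repeated shaking, readings every 10 min for four days.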

hAM1 receptor = hAM1 receptor (Homo sapiens, UniProt O60895+Q16602); assay: cAMP assay for in vitro receptor activation, hAM1-R; assay type: cell-based; settings: cAMP assay, hAM1 receptor; read-out: hAM1R EC50
Outline: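 A subcloned monoclonal line stably expressing hAM1 receptor is thawed and plated at 8000 cells/well. The assay buffer is DPBS with 0.05% casein and 0.5 mM IBMX, and receptor activation is followed by cAMP levels.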

hAM1 receptor, sequence (Q16602 23-461): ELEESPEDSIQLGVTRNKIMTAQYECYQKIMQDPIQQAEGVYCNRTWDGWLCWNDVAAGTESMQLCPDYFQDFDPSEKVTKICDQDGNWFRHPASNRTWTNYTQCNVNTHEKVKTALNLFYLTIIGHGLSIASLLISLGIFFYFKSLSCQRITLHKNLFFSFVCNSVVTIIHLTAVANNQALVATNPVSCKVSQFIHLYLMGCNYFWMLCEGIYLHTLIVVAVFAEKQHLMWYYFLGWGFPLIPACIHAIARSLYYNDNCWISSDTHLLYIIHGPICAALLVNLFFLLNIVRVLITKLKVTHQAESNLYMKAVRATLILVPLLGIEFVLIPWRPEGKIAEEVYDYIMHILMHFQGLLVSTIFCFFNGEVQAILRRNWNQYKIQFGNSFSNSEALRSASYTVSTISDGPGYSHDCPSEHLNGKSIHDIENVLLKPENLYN
hAM1 receptor, sequence (O60895 43-175 partner): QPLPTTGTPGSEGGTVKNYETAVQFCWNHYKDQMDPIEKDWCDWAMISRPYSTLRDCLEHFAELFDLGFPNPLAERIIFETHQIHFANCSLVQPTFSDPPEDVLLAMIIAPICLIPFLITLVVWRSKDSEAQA

Row | Compound | Max ThT signal (%) [1] [%] | EC50 (hAM1 receptor) [µM]
1 | CC[C@H](C)[C@H](NC(=O)[C@H](CCC(N)=O)NC(=O)[C@H](Cc1c[nH]cn1)NC(=O)[C@H](C)NC(=O)[C@H](CC(C)C)NC(=O)[C@H](CCCNC(N)=O)NC(=O)[C@H](CCC(N)=O)NC(=O)[C@@H](NC(=O)[C@@H](NC(=O)[C@@H]1CSSC[C@H](NC(=O)CN)C(=O)N[C@@H](CCCNC(=N)N)C(=O)N[C@@H]([C@@H](C)O)C(=O)NCC(=O)N[C@@H]([C@@H](C)O)C(=O)N1)[C@@H](C)O)C(C)C)C(=O)N[C@@H](Cc1ccc(O)cc1)C(=O)N[C@@H](CCC(N)=O)C(=O)N[C@@H](Cc1ccccc1)C(=O)N[C@H](C(=O)N[C@@H](CC(=O)O)C(=O)N[C@@H](CCCCN)C(=O)N[C@@H](CC(=O)O)C(=O)N[C@@H](CCCCN)C(=O)N[C@@H](CC(=O)O)C(=O)N[C@@H](CC(N)=O)C(=O)N[C@H](C(=O)N[C@@H](C)C(=O)N1CCC[C@H]1C(=O)N[C@@H](CCCNC(=N)N)C(=O)N[C@H](C(=O)N[C@@H](CCCCN)C(=O)N[C@H](C(=O)NCC(=O)N1CCC[C@H]1C(=O)N[C@@H](CCC(N)=O)C(=O)NCC(=O)N1C[C@H](O)C[C@H]1C(N)=O)C(C)C)[C@@H](C)O)C(C)C)[C@@H](C)O [compound 292] (H-GCRTGTCTVQ[Cit]LAHQIYQFTDKDKDNVAPRTKVGPQG[Hyp]-NH2; disulfide 2-7; N-terminus assumed) | 19.700 | > 5
2 | CC[C@H](C)[C@@H]1NC(=O)[C@H](CCCNC(=N)N)NC(=O)[C@@H](NC(=O)CN)CSSC[C@@H](C(=O)N[C@H](C(=O)N[C@H](C(=O)N[C@@H](CCC(N)=O)C(=O)N[C@@H](CCCNC(N)=O)C(=O)N[C@@H](CC(C)C)C(=O)N[C@@H](C)C(=O)N[C@@H](Cc2c[nH]cn2)C(=O)N[C@@H](CCC(N)=O)C(=O)N[C@H](C(=O)N[C@@H](Cc2ccc(O)cc2)C(=O)N[C@@H](CCC(N)=O)C(=O)N[C@@H](Cc2ccccc2)C(=O)N[C@H](C(=O)N[C@@H](CC(=O)O)C(=O)N[C@@H](CCCCN)C(=O)N[C@@H](Cc2ccccc2)C(=O)N[C@@H](CCCCN)C(=O)N[C@@H](CC(=O)O)C(=O)N[C@@H](CC(N)=O)C(=O)N[C@H](C(=O)N[C@@H](C)C(=O)N2CCC[C@H]2C(=O)N[C@@H](CCCNC(=N)N)C(=O)N[C@@H](CO)C(=O)N[C@@H](CCCCN)C(=O)N[C@H](C(=O)N[C@@H](CO)C(=O)N2CCC[C@H]2C(=O)N[C@@H](CCC(N)=O)C(=O)N[C@H](C(=O)N2C[C@H](O)C[C@H]2C(N)=O)[C@@H](C)O)[C@@H](C)CC)C(C)C)[C@@H](C)O)[C@@H](C)CC)C(C)C)[C@@H](C)O)NC(=O)[C@H]([C@@H](C)O)NC(=O)CNC1=O [compound 295] (H-GCRIGTCTVQ[Cit]LAHQIYQFTDKFKDNVAPRSKISPQT[Hyp]-NH2; disulfide 2-7; N-terminus assumed) | 19.450 | > 5
3 | CC[C@H](C)[C@H](NC(=O)[C@H](CCC(N)=O)NC(=O)[C@H](Cc1c[nH]cn1)NC(=O)[C@H](C)NC(=O)[C@H](CC(C)C)NC(=O)[C@H](CCCNC(N)=O)NC(=O)[C@H](CCC(N)=O)NC(=O)[C@@H](NC(=O)[C@@H](NC(=O)[C@@H]1CSSC[C@H](NC(=O)CN)C(=O)N[C@@H](CCCNC(=N)N)C(=O)N[C@@H](Cc2c[nH]c3ccccc23)C(=O)NCC(=O)N[C@@H]([C@@H](C)O)C(=O)N1)[C@@H](C)O)C(C)C)C(=O)N[C@@H](Cc1ccc(O)cc1)C(=O)N[C@@H](CCC(N)=O)C(=O)N[C@@H](Cc1ccccc1)C(=O)N[C@H](C(=O)N[C@@H](CC(=O)O)C(=O)N[C@@H](CCCCN)C(=O)N[C@@H](CC(=O)O)C(=O)N[C@@H](CCCCN)C(=O)N[C@@H](CC(=O)O)C(=O)N[C@@H](CC(N)=O)C(=O)N[C@H](C(=O)N[C@@H](C)C(=O)N1CCC[C@H]1C(=O)N[C@@H](CCCNC(=N)N)C(=O)N[C@@H](CO)C(=O)N[C@@H](CCCCN)C(=O)N[C@H](C(=O)N[C@@H](CO)C(=O)N1CCC[C@H]1C(=O)N[C@@H](CCC(N)=O)C(=O)N[C@H](C(=O)N1C[C@H](O)C[C@H]1C(N)=O)[C@@H](C)O)[C@@H](C)CC)C(C)C)[C@@H](C)O [compound 296] (H-GCRWGTCTVQ[Cit]LAHQIYQFTDKDKDNVAPRSKISPQT[Hyp]-NH2; disulfide 2-7; N-terminus assumed) | 26.050 | > 5
4 | CC[C@H](C)[C@H](NC(=O)[C@H](CCC(N)=O)NC(=O)[C@H](Cc1c[nH]cn1)NC(=O)[C@H](C)NC(=O)[C@H](CC(C)C)NC(=O)[C@H](CCCNC(N)=O)NC(=O)[C@H](CCC(N)=O)NC(=O)[C@@H](NC(=O)[C@@H](NC(=O)[C@@H]1CSSC[C@H](NC(=O)CN)C(=O)N[C@@H](CCCNC(=N)N)C(=O)N[C@@H]([C@@H](C)O)C(=O)NCC(=O)N[C@@H]([C@@H](C)O)C(=O)N1)[C@@H](C)O)C(C)C)C(=O)N[C@@H](Cc1ccc(O)cc1)C(=O)N[C@@H](CCC(N)=O)C(=O)N[C@@H](Cc1ccccc1)C(=O)N[C@H](C(=O)N[C@@H](CC(=O)O)C(=O)N[C@@H](CCCCN)C(=O)N[C@@H](CC(=O)O)C(=O)N[C@@H](CCCCN)C(=O)N[C@@H](CC(=O)O)C(=O)N[C@@H](CC(N)=O)C(=O)N[C@H](C(=O)N[C@@H](C)C(=O)N1CCC[C@H]1C(=O)N[C@@H](CCCNC(=N)N)C(=O)N[C@H](C(=O)N[C@@H](CCCCN)C(=O)N[C@H](C(=O)NCC(=O)N1CCC[C@H]1C(=O)N[C@@H](CCC(N)=O)C(=O)NCC(=O)N[C@@H](Cc1ccc(O)cc1)C(N)=O)C(C)C)[C@@H](C)O)C(C)C)[C@@H](C)O [compound 298] (H-GCRTGTCTVQ[Cit]LAHQIYQFTDKDKDNVAPRTKVGPQGY-NH2; disulfide 2-7; N-terminus assumed) | 31.250 | > 5
5 | CC[C@H](C)[C@H](NC(=O)[C@H](CCCCN)NC(=O)[C@H](CO)NC(=O)[C@H](CCCNC(=N)N)NC(=O)[C@@H]1CCCN1C(=O)[C@H](C)NC(=O)[C@@H](NC(=O)[C@H](CC(N)=O)NC(=O)[C@H](CC(=O)O)NC(=O)[C@H](CCCCN)NC(=O)[C@H](CC(=O)O)NC(=O)[C@H](CCCCN)NC(=O)[C@H](CC(=O)O)NC(=O)[C@@H](NC(=O)[C@H](Cc1ccccc1)NC(=O)[C@H](CCC(N)=O)NC(=O)[C@H](Cc1ccc(O)cc1)NC(=O)[C@@H](NC(=O)[C@H](CCC(N)=O)NC(=O)[C@H](Cc1c[nH]cn1)NC(=O)[C@H](C)NC(=O)[C@H](CC(C)C)NC(=O)[C@H](CCCNC(N)=O)NC(=O)[C@H](CCC(N)=O)NC(=O)[C@@H](NC(=O)[C@@H](NC(=O)[C@@H]1CSSC[C@H](NC(=O)CN)C(=O)N[C@@H](CCCNC(=N)N)C(=O)N[C@@H]([C@@H](C)O)C(=O)NCC(=O)N[C@@H]([C@@H](C)O)C(=O)N1)[C@@H](C)O)C(C)C)[C@@H](C)CC)[C@@H](C)O)C(C)C)C(=O)NCC(=O)N1CCC[C@H]1C(=O)N[C@@H](CC(N)=O)C(=O)NCC(=O)N1C[C@H](O)C[C@H]1C(N)=O [compound 299] (H-GCRTGTCTVQ[Cit]LAHQIYQFTDKDKDNVAPRSKIGPNG[Hyp]-NH2; disulfide 2-7; N-terminus assumed) | 26.550 | > 5
6 | CC[C@H](C)[C@H](NC(=O)[C@H](CCCCN)NC(=O)[C@@H](NC(=O)[C@H](CCCNC(=N)N)NC(=O)[C@@H]1CCCN1C(=O)[C@H](C)NC(=O)[C@@H](NC(=O)[C@H](CC(N)=O)NC(=O)[C@H](CC(=O)O)NC(=O)[C@H](CCCCN)NC(=O)[C@H](CC(=O)O)NC(=O)[C@H](CCCCN)NC(=O)[C@H](CC(=O)O)NC(=O)[C@@H](NC(=O)[C@H](Cc1ccccc1)NC(=O)[C@H](CCC(N)=O)NC(=O)[C@H](Cc1ccc(O)cc1)NC(=O)[C@@H](NC(=O)[C@H](CCC(N)=O)NC(=O)[C@H](Cc1c[nH]cn1)NC(=O)[C@H](C)NC(=O)[C@H](CC(C)C)NC(=O)[C@H](CCCNC(N)=O)NC(=O)[C@H](CCC(N)=O)NC(=O)[C@@H](NC(=O)[C@@H](NC(=O)[C@@H]1CSSC[C@H](NC(=O)CN)C(=O)N[C@@H](CCCNC(=N)N)C(=O)N[C@@H]([C@@H](C)O)C(=O)NCC(=O)N[C@@H]([C@@H](C)O)C(=O)N1)[C@@H](C)O)C(C)C)[C@@H](C)CC)[C@@H](C)O)C(C)C)[C@@H](C)O)C(=O)NCC(=O)N1CCC[C@H]1C(=O)N[C@@H](CCC(N)=O)C(=O)NCC(=O)N1C[C@H](O)C[C@H]1C(N)=O [compound 301] (H-GCRTGTCTVQ[Cit]LAHQIYQFTDKDKDNVAPRTKIGPQG[Hyp]-NH2; disulfide 2-7; N-terminus assumed) | 16.950 | > 5
7 | CC[C@H](C)[C@H](NC(=O)[C@H](CC(N)=O)NC(=O)[C@H](CO)NC(=O)[C@H](CCCNC(=N)N)NC(=O)[C@@H]1CCCN1C(=O)[C@H](C)NC(=O)[C@@H](NC(=O)[C@H](CC(N)=O)NC(=O)[C@H](CC(=O)O)NC(=O)[C@H](CCCCN)NC(=O)[C@H](CC(=O)O)NC(=O)[C@H](CCCCN)NC(=O)[C@H](CC(=O)O)NC(=O)[C@@H](NC(=O)[C@H](Cc1ccccc1)NC(=O)[C@H](CCC(N)=O)NC(=O)[C@H](Cc1ccc(O)cc1)NC(=O)[C@@H](NC(=O)[C@H](CCC(N)=O)NC(=O)[C@H](Cc1c[nH]cn1)NC(=O)[C@H](C)NC(=O)[C@H](CC(C)C)NC(=O)[C@H](CCCNC(N)=O)NC(=O)[C@H](CCC(N)=O)NC(=O)[C@@H](NC(=O)[C@@H](NC(=O)[C@@H]1CSSC[C@H](NC(=O)CN)C(=O)N[C@@H](CCCNC(=N)N)C(=O)N[C@@H]([C@@H](C)O)C(=O)NCC(=O)N[C@@H]([C@@H](C)O)C(=O)N1)[C@@H](C)O)C(C)C)[C@@H](C)CC)[C@@H](C)O)C(C)C)C(=O)NCC(=O)N1CCC[C@H]1C(=O)N[C@@H](CCC(N)=O)C(=O)NCC(=O)N1C[C@H](O)C[C@H]1C(N)=O [compound 303] (H-GCRTGTCTVQ[Cit]LAHQIYQFTDKDKDNVAPRSNIGPQG[Hyp]-NH2; disulfide 2-7) | 18.150 | > 5
